Data on 3 compounds can be found in ChEMBL document CHEMBL1201862, “PubChem BioAssay data set” (2004).

In general, CC50 refers to the concentration giving 50% cytotoxicity. By IC50 is commonly meant the concentration that gives 50% inhibition.

SMILES strings stand for the structures. Activity calls are given as the source filed them. For most assays here, no stated cut-off is given here; in the data, actives have a measured IC50 and inactives only a lower limit. A value given as a limit tells only on which side of the number the result lay.

Format in all cases: functional
Experiment [1] is described as follows: viability of uninfected HEp-2 cells – cell-based, HTS, cytotoxicity control for RSV inhibitor project, dose response (AID 2410). Particulars: human respiratory syncytial virus.
Experiment [2] has as its target T1, Ubiquitin-conjugating enzyme E2 N (Homo sapiens, UniProt P61088).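 Further: Dose-response confirmation in a TR-FRET assay detecting UBC13-driven polyubiquitin chain formation, inhibition measured.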
T1 sequence (P61088 whole entry): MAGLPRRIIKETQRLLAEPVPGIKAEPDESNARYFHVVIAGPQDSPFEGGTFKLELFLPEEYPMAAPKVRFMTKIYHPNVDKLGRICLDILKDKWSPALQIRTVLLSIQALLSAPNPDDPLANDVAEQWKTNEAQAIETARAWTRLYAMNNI

Experiment [3] addresses T2, Apoptotic protease-activating factor 1 (Homo sapiens, UniProt O14727).
T2 sequence (O14727 whole entry): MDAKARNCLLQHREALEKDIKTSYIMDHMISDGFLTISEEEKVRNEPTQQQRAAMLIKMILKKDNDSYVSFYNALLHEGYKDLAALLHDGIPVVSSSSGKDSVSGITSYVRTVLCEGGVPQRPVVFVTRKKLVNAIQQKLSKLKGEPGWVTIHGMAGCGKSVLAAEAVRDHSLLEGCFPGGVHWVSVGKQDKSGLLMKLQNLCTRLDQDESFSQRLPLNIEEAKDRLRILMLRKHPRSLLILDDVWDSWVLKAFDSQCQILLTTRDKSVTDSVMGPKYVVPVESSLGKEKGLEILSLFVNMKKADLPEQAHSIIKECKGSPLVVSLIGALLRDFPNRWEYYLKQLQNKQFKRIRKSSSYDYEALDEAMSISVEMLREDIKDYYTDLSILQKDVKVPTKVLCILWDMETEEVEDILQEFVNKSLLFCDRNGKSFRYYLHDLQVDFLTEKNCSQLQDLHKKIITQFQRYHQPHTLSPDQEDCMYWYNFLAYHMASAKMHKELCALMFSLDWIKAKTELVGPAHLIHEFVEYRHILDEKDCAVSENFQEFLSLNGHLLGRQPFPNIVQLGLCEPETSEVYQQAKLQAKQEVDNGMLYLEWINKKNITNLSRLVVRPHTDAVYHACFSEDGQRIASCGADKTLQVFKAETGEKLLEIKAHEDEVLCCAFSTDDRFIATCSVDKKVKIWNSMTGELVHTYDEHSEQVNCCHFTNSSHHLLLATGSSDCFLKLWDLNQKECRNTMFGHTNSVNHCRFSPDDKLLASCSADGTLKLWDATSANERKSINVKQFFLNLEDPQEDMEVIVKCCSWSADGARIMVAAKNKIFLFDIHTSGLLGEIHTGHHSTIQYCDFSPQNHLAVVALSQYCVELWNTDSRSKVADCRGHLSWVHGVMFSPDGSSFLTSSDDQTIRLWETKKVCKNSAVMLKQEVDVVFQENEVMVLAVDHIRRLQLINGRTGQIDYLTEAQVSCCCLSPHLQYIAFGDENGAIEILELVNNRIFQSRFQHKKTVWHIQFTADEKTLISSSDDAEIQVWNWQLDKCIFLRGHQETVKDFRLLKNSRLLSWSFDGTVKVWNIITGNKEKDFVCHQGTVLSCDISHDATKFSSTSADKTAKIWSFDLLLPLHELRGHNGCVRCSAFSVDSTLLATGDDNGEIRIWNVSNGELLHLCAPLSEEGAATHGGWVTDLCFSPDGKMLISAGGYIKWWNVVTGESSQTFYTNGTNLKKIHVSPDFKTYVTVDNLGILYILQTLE

Experiment [4] addresses T3, Sentrin-specific protease 8 (Homo sapiens, UniProt Q96LD8).
T3 sequence (Q96LD8 whole entry): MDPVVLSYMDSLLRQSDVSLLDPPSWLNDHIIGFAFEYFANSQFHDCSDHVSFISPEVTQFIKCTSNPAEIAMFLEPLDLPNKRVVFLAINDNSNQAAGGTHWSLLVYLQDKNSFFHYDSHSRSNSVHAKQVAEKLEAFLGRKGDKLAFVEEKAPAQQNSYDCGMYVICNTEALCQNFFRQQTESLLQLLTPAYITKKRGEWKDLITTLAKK
The experiment is described as follows: inhibition of human SENP8 cleavage activity – biochemical, luminescence, SAR follow-up (AID 504501).

For the next experiment, the target named is T4, Caspase-3 (Homo sapiens, UniProt P42574).
T4 sequence (P42574 whole entry): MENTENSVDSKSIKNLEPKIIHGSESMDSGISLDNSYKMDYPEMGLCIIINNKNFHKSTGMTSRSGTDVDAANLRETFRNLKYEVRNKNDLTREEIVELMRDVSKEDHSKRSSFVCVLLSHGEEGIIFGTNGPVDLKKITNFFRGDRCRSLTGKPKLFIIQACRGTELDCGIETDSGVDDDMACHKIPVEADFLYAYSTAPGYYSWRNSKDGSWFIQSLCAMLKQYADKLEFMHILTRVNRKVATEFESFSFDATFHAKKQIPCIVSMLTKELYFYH
The experiment is described as follows: SAR Analysis of small molecule inhibitors of Sentrin-specific proteases (SENPs) using a Caspase-3 Selectivity assay. [Related pubchem assays (depositor defined):AID2540, AID2599, AID434973, AID489001].

Experiment [5] concerns the target T5, Sentrin-specific protease 6 (Homo sapiens, UniProt Q9GZR1).
T5 sequence (Q9GZR1 whole entry): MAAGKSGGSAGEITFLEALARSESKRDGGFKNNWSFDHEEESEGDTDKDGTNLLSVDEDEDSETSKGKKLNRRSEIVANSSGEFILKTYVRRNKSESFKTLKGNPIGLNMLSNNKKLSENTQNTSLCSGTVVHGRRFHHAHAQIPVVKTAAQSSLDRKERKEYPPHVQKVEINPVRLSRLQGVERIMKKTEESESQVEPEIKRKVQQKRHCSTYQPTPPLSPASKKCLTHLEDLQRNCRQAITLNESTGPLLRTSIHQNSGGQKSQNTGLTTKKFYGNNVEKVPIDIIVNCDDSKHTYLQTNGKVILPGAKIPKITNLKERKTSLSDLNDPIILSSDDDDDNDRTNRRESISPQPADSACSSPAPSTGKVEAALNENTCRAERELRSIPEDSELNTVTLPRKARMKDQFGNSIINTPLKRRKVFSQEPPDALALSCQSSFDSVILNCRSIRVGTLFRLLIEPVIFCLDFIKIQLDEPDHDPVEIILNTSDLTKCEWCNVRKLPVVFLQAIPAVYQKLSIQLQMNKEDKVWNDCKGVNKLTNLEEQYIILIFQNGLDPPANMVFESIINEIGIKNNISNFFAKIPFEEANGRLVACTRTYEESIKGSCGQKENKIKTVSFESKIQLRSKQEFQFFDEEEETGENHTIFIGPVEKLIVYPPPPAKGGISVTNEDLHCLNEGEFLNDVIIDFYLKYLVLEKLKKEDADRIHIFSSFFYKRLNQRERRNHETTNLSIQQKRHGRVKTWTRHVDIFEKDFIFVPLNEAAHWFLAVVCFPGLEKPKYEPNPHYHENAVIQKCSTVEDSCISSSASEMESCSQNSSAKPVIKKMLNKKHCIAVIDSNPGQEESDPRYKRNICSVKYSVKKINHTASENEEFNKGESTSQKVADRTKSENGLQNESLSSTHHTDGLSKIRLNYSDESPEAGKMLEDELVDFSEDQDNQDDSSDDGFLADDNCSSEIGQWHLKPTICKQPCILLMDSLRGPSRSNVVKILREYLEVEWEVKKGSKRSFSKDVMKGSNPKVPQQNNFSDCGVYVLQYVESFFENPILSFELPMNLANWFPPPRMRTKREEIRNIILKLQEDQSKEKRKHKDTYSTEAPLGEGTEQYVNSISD
Description: SAR Analysis of small molecule inhibitors of Sentrin-specific protease 6 (SENP6) using a Luminescent assay. [Related pubchem assays (depositor defined):AID2582, AID2599].

Experiment [6] concerns the target T6, Sentrin-specific protease 7 (Homo sapiens, UniProt Q9BQF6).
T6 sequence (Q9BQF6 whole entry): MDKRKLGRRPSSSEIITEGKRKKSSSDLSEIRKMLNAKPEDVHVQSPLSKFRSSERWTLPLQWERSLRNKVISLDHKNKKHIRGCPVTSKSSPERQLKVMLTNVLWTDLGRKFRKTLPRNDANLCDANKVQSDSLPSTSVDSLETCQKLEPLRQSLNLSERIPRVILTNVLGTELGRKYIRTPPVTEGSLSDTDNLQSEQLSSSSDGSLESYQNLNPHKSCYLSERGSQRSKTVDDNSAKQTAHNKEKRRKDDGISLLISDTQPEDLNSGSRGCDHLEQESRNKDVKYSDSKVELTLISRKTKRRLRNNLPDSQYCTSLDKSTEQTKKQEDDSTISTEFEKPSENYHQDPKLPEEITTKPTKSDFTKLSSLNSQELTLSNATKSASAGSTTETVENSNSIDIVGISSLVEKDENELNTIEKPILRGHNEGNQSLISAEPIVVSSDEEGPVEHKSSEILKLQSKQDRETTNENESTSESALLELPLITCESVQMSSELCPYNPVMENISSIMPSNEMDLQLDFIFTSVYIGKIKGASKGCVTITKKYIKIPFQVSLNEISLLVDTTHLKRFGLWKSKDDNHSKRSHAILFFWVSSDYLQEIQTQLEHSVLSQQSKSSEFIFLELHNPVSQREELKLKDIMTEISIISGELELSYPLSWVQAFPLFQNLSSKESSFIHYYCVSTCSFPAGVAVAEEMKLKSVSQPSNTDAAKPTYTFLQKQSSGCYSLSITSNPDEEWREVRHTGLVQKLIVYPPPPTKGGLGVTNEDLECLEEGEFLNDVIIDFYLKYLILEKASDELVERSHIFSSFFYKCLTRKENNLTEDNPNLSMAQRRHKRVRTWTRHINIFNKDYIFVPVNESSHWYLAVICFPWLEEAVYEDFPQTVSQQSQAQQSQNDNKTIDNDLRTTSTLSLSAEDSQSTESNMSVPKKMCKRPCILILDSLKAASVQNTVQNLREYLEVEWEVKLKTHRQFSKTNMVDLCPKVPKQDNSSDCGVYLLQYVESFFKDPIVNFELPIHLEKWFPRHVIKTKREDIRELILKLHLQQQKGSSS
Description: inhibition of human SENP7 cleavage activity – biochemical, luminescence, SAR follow-up (AID 504497).

As to `COc1ccc(S(=O)(=O)N2CCN(c3ccc4nnc(-c5ccc(F)cc5)n4n3)CC2)cc1`, the CC50 in experiment [1] is > 50 µM (active). Further, the IC50 was > 20 µM (inactive) in experiment [2] and 19.2 µM (active) in experiment [3].

On to `O=C(c1ccc(Cl)s1)N(Cc1cccnc1)c1nc2c(F)cc(F)cc2s1`, for which the IC50 (in experiment [4]; at Caspase-3; in experiment [5]; in experiment [6]) was > 99 µM (inactive) each time.

As for `Cc1ccc(C(=O)Nc2sc3c(c2C#N)CCCCCC3)o1`, the IC50 is > 99 µM (inactive) in experiment [4], > 99 µM (inactive) at Caspase-3, > 99 µM (inactive) in experiment [5] and 39.1 µM (active) in experiment [6].
